Test results: patent US20050261290A1, “Novel compounds of proline and morpholine derivatives” (priority 2004, published 2005)

Biological target: human 11b-hsd-1 (Homo sapiens, UniProt P28845)
Experiment: Inhibition constant Ki of human 11b-hsd-1 (3H-cortisone to 3H-cortisol conversion, HPLC)
Assay type: biochemical
Settings: for inhibition at 0.1 µM: 0.1 μM compound; for Ki: apparent Ki, read-out: Ki app

Chain of human 11b-hsd-1 (P28845 whole entry): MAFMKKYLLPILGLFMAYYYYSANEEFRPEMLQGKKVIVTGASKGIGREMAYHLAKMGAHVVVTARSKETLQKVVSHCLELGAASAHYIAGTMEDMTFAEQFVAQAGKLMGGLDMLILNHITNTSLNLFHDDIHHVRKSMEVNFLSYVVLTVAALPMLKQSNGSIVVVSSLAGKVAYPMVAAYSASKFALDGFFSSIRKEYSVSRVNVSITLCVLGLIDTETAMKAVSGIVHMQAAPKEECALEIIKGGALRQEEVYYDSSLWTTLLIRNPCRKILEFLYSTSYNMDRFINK

| Structure (SMILES) | inhibition at 0.1 µM [%] | Ki [nM] |
| --- | --- | --- |
| O=C(N[C@@H]1CCc2ccccc21)[C@H]1CCCN1Cc1ccccc1 [Example 283] | 100 | 5.6 |
| N#Cc1ccccc1CN1CCC[C@@H]1C(=O)N[C@@H]1CCc2ccccc21 [Example 284] | 93.1 | 11.5 |
| N#Cc1ccc(CN2CCC[C@@H]2C(=O)N[C@@H]2CCc3ccccc32)cc1 [Example 285] | 100 | 7.82 |
| CCCN1CCC[C@@H]1C(=O)N[C@@H]1CCc2ccccc21 [Example 286] | 91.4 | 5.8 |
| CC(C)CN1CCC[C@@H]1C(=O)N[C@H](C)c1ccccc1 [Example 287] | 98.7 | 3.39 |
| CC(C)CN1CCC[C@@H]1C(=O)N[C@H]1c2ccccc2C[C@H]1O [Example 288] | 99.1 | 5.51 |
| CC(C)CN1CCC[C@@H]1C(=O)NC1Cc2ccccc2C1 [Example 289] | 100 | 1.2 |
| CC(C)CN1CCC[C@@H]1C(=O)NC(C)c1ccc(F)cc1 (stereo partly drawn) [Example 290] | 96.2 | 6.85 |
| CC(C)CN1CCC[C@@H]1C(=O)N[C@@H]1CCc2ccccc21 [Example 291] | 100 | 1 |
| C[C@@H](NC(=O)[C@H]1CCCN1CC1CCCC1)c1ccccc1 [Example 292] | 92.1 | 9.59 |
| O=C(N[C@H]1c2ccccc2C[C@H]1O)[C@H]1CCCN1CC1CCCC1 [Example 293] | 92.6 | 22.4 |
| O=C(NC1Cc2ccccc2C1)[C@H]1CCCN1CC1CCCC1 [Example 294] | 100 | 8.52 |
| O=C(N[C@@H]1CCCc2ccccc21)[C@H]1CCCN1Cc1ccccc1 [Example 295] | 100 | 4.5 |
| C[C@@H](NC(=O)[C@H]1CCCN1Cc1ccccc1)c1ccc(Cl)cc1 [Example 296] | 95.7 | 11.4 |
| N#Cc1ccc(CN2CCC[C@@H]2C(=O)N[C@@H]2CCCc3ccccc32)cc1 [Example 297] | 100 | 3.7 |
| CC(C)CN1CCC[C@@H]1C(=O)N[C@H](C)c1ccc(Cl)cc1 [Example 298] | 100 | 1.77 |

| Structure (SMILES) | inhibition at 0.1 µM [%] | Ki [nM] |
| --- | --- | --- |
| O=C(N[C@@H]1CCCc2ccccc21)[C@H]1CCCN1CC1CCCC1 [Example 299] | 100 | 2.23 |
| O=C(N[C@H]1c2ccccc2C[C@H]1O)[C@H]1COCCN1Cc1ccccc1 [Example 301] | 89.2 | 11.1 |
| O=C(NC1CCCCC1)[C@H]1COCCN1Cc1ccccc1 [Example 302] | 99.1 | 3.2 |
| CN(C(=O)[C@H]1COCCN1Cc1ccccc1)C1CCCCC1 [Example 303] | 50 | 4.4 |
| O=C(N[C@@H]1CCc2ccccc21)[C@H]1COCCN1Cc1ccccc1 [Example 304] | 59.4 | 3.6 |
| N#Cc1ccccc1CN1CCOC[C@@H]1C(=O)N[C@@H]1CCc2ccccc21 [Example 305] | 98.7 | 3.4 |
| N#Cc1ccc(CN2CCOC[C@@H]2C(=O)NC2CCCCC2)cc1 [Example 306] | 100 | 4.9 |
| CC(C)CN1CCOC[C@@H]1C(=O)NC1Cc2ccccc2C1 [Example 307] | 100 | 12.8 |
| CC(C)CN1CCOC[C@@H]1C(=O)N[C@@H]1CCc2ccccc21 [Example 308] | 97.7 | 5.71 |
| C[C@@H](NC(=O)[C@H]1COCCN1CC1CCCC1)c1ccccc1 [Example 309] | 86.1 | 32 |
| O=C(N[C@H]1c2ccccc2C[C@H]1O)[C@H]1COCCN1CC1CCCC1 [Example 310] | 92 | 29.5 |
| CN(Cc1ccccc1Cl)C(=O)[C@H]1COCCN1CC1CCCC1 [Example 312] | 95.3 | 14 |
| O=C(N[C@@H]1CCCc2ccccc21)[C@H]1COCCN1Cc1ccccc1 [Example 313] | 97 | 4.89 |
| C[C@@H](NC(=O)[C@H]1COCCN1Cc1ccccc1)c1ccc(Cl)cc1 [Example 314] | 94.8 | 8.96 |
| N#Cc1ccc(CN2CCOC[C@@H]2C(=O)N[C@@H]2CCCc3ccccc32)cc1 [Example 315] | 96.1 | 6.63 |
| CC(C)CN1CCOC[C@@H]1C(=O)N[C@@H]1CCCc2ccccc21 [Example 316] | 91 | 10.9 |

Other lines, results leading:

| inhibition at 0.1 µM [%] | Ki [nM] | Structure (SMILES) |
| --- | --- | --- |
| 91.1 | 8.72 | CC(C)CN1CCOC[C@@H]1C(=O)N[C@H](C)c1ccc(Cl)cc1 [Example 317] |
| 84.8 | 13 | O=C(N[C@@H]1CCCc2ccccc21)[C@H]1COCCN1CC1CCCC1 [Example 318] |
| 100 | 1.7 | O=C(NC1C2CC3CC(C2)CC1C3)[C@@H]1C[C@H](Oc2cccc(F)c2)CN1 (stereo partly drawn) [Example 319] |
| 100 | 5.5 | Cc1ccccc1O[C@@H]1CN[C@H](C(=O)NC2C3CC4CC(C3)CC2C4)C1 (stereo partly drawn) [Example 320] |
| 100 | 1 | O=C(NC1C2CC3CC(C2)CC1C3)[C@@H]1C[C@H](Oc2ccc(F)cc2)CN1 (stereo partly drawn) [Example 321] |
| 62.5 | 45 | O=C(NCc1ccccc1)C1COCCN1CC1CCCCC1 (stereo not drawn) [Example 322] |
| 69.7 | 110 | N#Cc1ccc(CN2CCC[C@@H]2C(=O)NCc2ccccc2)cc1 [Example 323] |
| 69.2 | 69 | O=C(NCc1ccc(F)cc1)[C@H]1CCCN1CCC(F)(F)F [Example 324] |
| 35.7 |  | O=C(NCc1ccc(Cl)cc1)[C@H]1CCCN1Cc1ccc(Cl)cc1 [Example 325] |
| 69.4 | 69 | Cc1ccc(CNC(=O)[C@H]2CCCN2CCC(F)(F)F)cc1 [Example 326] |
| 68.9 | 110 | O=C(NCc1c(F)cccc1F)[C@H]1COCCN1Cc1ccccc1 [Example 327] |
| 100 | 3.2 | N#Cc1ccc(CN2CCC[C@@H]2C(=O)NCC2CCCCC2)cc1 [Example 328] |
| 83.5 | 30 | CC(C)CN1CCC[C@@H]1C(=O)NCC1(O)CCCC1 [Example 330] |
| 86.6 | 26 | CCCN1CCOC[C@@H]1C(=O)NC1CCCCC1 [Example 331] |
| 100 | 2.2 | CC(C)CN1CCOC[C@@H]1C(=O)NC1CCCCC1 [Example 332] |
| 100 | 4 | CC(C)CN1CCOC[C@@H]1C(=O)N(C)C1CCCCC1 [Example 333] |
| 100 | 2.4 | N#Cc1ccc(CN2CCOC[C@@H]2C(=O)NCC2CCCCC2)cc1 [Example 334] |
| 100 | 6.9 | CCCN1CCOC[C@@H]1C(=O)NCC1CCCCC1 [Example 335] |
| 100 | 1 | CC(C)CN1CCOC[C@@H]1C(=O)NCC1CCCCC1 [Example 336] |
| 97.8 | 13 | CC(C)CN1C[C@H](O)C[C@@H]1C(=O)NCC1CCCCC1 [Example 337] |

| inhibition at 0.1 µM [%] | Ki [nM] | Structure (SMILES) |
| --- | --- | --- |
| 100 | 1 | O=C(NC1C2CC3CC(C2)CC1C3)[C@@H]1C[C@H](Oc2ccccc2)CN1 (stereo partly drawn) [Example 338] |
| 97.7 | 1 | O=C(NC1C2CC3CC(C2)CC1C3)[C@@H]1C[C@H](Oc2ccc(Cl)cc2)CN1 (stereo partly drawn) [Example 339] |
| 100 | 5.2 | O=C(NC1C2CC3CC(C2)CC1C3)[C@@H]1NCC[C@H]1c1ccccc1 (stereo partly drawn) [Example 340] |
| 100 | 0.7 | O=C(NC1C2CC3CC(C2)CC1C3)[C@@H]1C[C@H](Oc2ccccc2F)CN1 (stereo partly drawn) [Example 341] |
| 97.5 | 9.9 | O=C(NC1C2CC3CC(C2)CC1C3)[C@H]1NCC[C@@H]1C1CCCC1 (stereo partly drawn) [Example 342] |
| 98.6 | 6.3 | Cc1ccc(O[C@@H]2CN[C@H](C(=O)NC3C4CC5CC(C4)CC3C5)C2)cn1 (stereo partly drawn) [Example 343] |
| 90.7 | 11 | CC(C)[C@H]1CCN[C@@H]1C(=O)NC1C2CC3CC(C2)CC1C3 (stereo partly drawn) [Example 344] |
| 76.5 | 27 | CC[C@H]1CCN[C@@H]1C(=O)NC1C2CC3CC(C2)CC1C3 (stereo partly drawn) [Example 345] |
| 90.2 | 18 | O=C(NC1C2CC3CC(C2)CC1C3)[C@H]1CNC[C@H](c2ccccc2)C1 (stereo partly drawn) [Example 346] |
| 96.6 | 3.3 | Cc1cc(C)cc(O[C@@H]2CN[C@H](C(=O)NC3C4CC5CC(C4)CC3C5)C2)c1 (stereo partly drawn) [Example 347] |
| 100 | 2.7 | Cc1cccc(O[C@@H]2CN[C@H](C(=O)NC3C4CC5CC(C4)CC3C5)C2)c1 (stereo partly drawn) [Example 348] |
| 100 | 1.8 | Cc1cc(Cl)ccc1O[C@@H]1CN[C@H](C(=O)NC2C3CC4CC(C3)CC2C4)C1 (stereo partly drawn) [Example 349] |
| 100 | 2.2 | CCc1ccccc1O[C@@H]1CN[C@H](C(=O)NC2C3CC4CC(C3)CC2C4)C1 (stereo partly drawn) [Example 350] |
| 100 | 1 | Cc1cc(O[C@@H]2CN[C@H](C(=O)NC3C4CC5CC(C4)CC3C5)C2)ccc1F (stereo partly drawn) [Example 351] |
| 100 | 1 | O=C(NC1C2CC3CC(C2)CC1C3)[C@@H]1C[C@H](Oc2cc(F)ccc2F)CN1 (stereo partly drawn) [Example 352] |
| 100 | 4.9 | COc1cc(F)ccc1O[C@@H]1CN[C@H](C(=O)NC2C3CC4CC(C3)CC2C4)C1 (stereo partly drawn) [Example 353] |
| 100 | 2.1 | CCc1ccc(O[C@@H]2CN[C@H](C(=O)NC3C4CC5CC(C4)CC3C5)C2)c(OC)c1 (stereo partly drawn) [Example 354] |
| 100 | 1 | O=C(NC1C2CC3CC(C2)CC1C3)[C@@H]1C[C@H](Oc2ccc(F)c(F)c2F)CN1 (stereo partly drawn) [Example 355] |
| 100 | 1.4 | Cc1cc(F)ccc1O[C@@H]1CN[C@H](C(=O)NC2C3CC4CC(C3)CC2C4)C1 (stereo partly drawn) [Example 356] |
